Reference: DBAASP
≈ marks a conversion by molar mass, not a printed value. Where “and” joins values, the source holds several entries; their conditions need not be identical. Identical values can stand only once. Blank lines part the entries; values can stand above or below the compound they belong to.

Legend:
Assay in all cases: ≥ marks a high value that may be exact or a test limit, other limits are often not marked, values filed in µg/mL are converted to µM
[1] = test system: Escherichia coli ATCC 25922
[2] = test system: Staphylococcus aureus NCTC 8325
[3] = test system: Candida albicans ATCC 90028
[4] = test system: Staphylococcus aureus USA 300
Escherichia coli K-12 = test system: Escherichia coli K-12
Micrococcus luteus = test system: Micrococcus luteus
[5] = test system: Micrococcus luteus ATCC 9341
[6] = test system: Staphylococcus aureus ATCC BAA-1556
Escherichia coli K88 = test system: Escherichia coli K88
[7] = test system: Salmonella enterica subsp. enterica serovar Typhimurium C77-31
[8] = test system: Bacillus subtilis CMCC 63501
[9] = test system: Staphylococcus aureus ATCC 29213
[10] = test system: Salmonella enterica subsp. enterica serovar Pullorum C79-13
[11] = test system: Staphylococcus epidermidis ATCC 12228
[12] = test system: Enterococcus faecalis ATCC 29212
Escherichia coli UB1005 = test system: Escherichia coli UB1005
[13] = test system: Staphylococcus aureus ATCC 25923
Escherichia coli K99 = test system: Escherichia coli K99
[14] = test system: Salmonella enterica subsp. enterica serovar Typhimurium ATCC 14028
Escherichia coli 078 = test system: Escherichia coli 078
[15] = test system: Streptococcus pyogenes ATCC 19615
Escherichia coli = test system: Escherichia coli
Bacillus subtilis = test system: Bacillus subtilis
[16] = test system: Pseudomonas aeruginosa ATCC 27853
[17] = test system: Klebsiella pneumoniae ATCC 13883

Compound: CC[C@H](C)[C@H](NC(=O)[C@H](CCCCN)NC(=O)[C@H](CCSC)NC(=O)[C@H](CC(C)C)NC(=O)CNC(=O)CNC(=O)[C@H](CC(C)C)NC(=O)[C@@H](N)Cc1ccccc1)C(=O)N[C@H](C(=O)N1CCC[C@H]1C(=O)N[C@@H](C)C(=O)N[C@@H](C)C(=O)N[C@@H](Cc1ccccc1)C(=O)N[C@H]1CSSC[C@@H](C(=O)O)NC(=O)[C@H](CCCCN)NC(=O)[C@H](CCCCN)NC(=O)[C@H]([C@@H](C)O)NC(=O)[C@H](C(C)C)NC(=O)[C@H](C)NC1=O)[C@@H](C)CC [FLGGLMKIIPAAFCAVTKKC]
- MIC [1]: 9 µM (≈ 19 µg/mL)
- MIC [2]: 18 µM (≈ 38 µg/mL)
- MIC [3]: ≥ 70 µM

Compound: CC[C@H](C)[C@H](NC(=O)[C@H](C)NC(=O)[C@H](CCCCN)NC(=O)[C@H](Cc1ccccc1)NC(=O)CN)C(=O)N[C@H](C(=O)N[C@@H](CCC(N)=O)C(=O)N[C@@H](CCCN=C(N)N)C(=O)N[C@H](C(=O)N[C@@H](CCCCN)C(=O)N[C@@H](CC(=O)O)C(=O)N[C@@H](Cc1ccccc1)C(=O)N[C@@H](CC(C)C)C(=O)N[C@@H](CCCN=C(N)N)C(=O)N[C@@H](CC(N)=O)C(=O)N[C@@H](CC(C)C)C(=O)N[C@H](C(N)=O)C(C)C)[C@@H](C)CC)C(C)C [GFKAIVQRIKDFLRNLV]
- MIC [4]: 7.5 µM and 3.1 µM
- MIC (Escherichia coli K-12): 15 µM (≈ 30.2 µg/mL)

Compound: CC[C@H](C)[C@H](NC(=O)[C@H](CCCCN)NC(=O)[C@H](CC(C)C)NC(=O)[C@H](CC(C)C)NC(=O)[C@@H]1CCCN1C(=O)CNC(=O)[C@H](CC(C)C)NC(=O)[C@H](CC(C)C)NC(=O)CN)C(=O)N[C@@H](C)C(=O)N[C@@H](C)C(=O)N[C@@H](CCCCN)C(=O)N[C@H](C(=O)NCC(=O)N[C@@H](CO)C(=O)N[C@@H](CC(N)=O)C(=O)N[C@@H](CC(C)C)C(=O)N[C@@H](CC(C)C)C(=O)O)C(C)C [GLLGPLLKIAAKVGSNLL]
- MIC [1]: 60 µM (≈ 107 µg/mL)
- MIC [2]: ≥ 130 µM
- MIC [3]: ≥ 200 µM

Compound: CC[C@H](C)[C@H](NC(=O)[C@H](CO)NC(=O)[C@H](CO)NC(=O)[C@@H](NC(=O)[C@H](CC(C)C)NC(=O)CN)C(C)C)C(=O)NCC(=O)N[C@@H](CCCN=C(N)N)C(=O)N[C@@H](C)C(=O)N[C@@H](CC(C)C)C(=O)NCC(=O)NCC(=O)N[C@@H](CC(C)C)C(=O)N[C@@H](CC(C)C)C(=O)N[C@@H](C)C(=O)N[C@@H](CC(=O)O)C(=O)N[C@H](C(=O)N[C@H](C(=O)N[C@@H](CCCCN)C(=O)N[C@@H](CO)C(=O)N[C@@H](CCCCN)C(=O)N[C@@H](CCC(=O)O)C(=O)N[C@@H](CCC(N)=O)C(=O)N1CCC[C@H]1C(=O)N[C@@H](C)C(=O)O)C(C)C)C(C)C [GLVSSIGRALGGLLADVVKSKEQPA]
- MIC (Micrococcus luteus): 20.3 µM (≈ 50 µg/mL)

Compound: CSCC[C@H](NC(=O)CNC(=O)CNC(=O)[C@H](CCCCN)NC(=O)[C@H](C)NC(=O)[C@H](Cc1ccccc1)NC(=O)[C@H](CCCCN)NC(=O)[C@H](CCCCN)NC(=O)[C@H](CC(C)C)NC(=O)[C@H](C)NC(=O)[C@H](CC(=O)O)NC(=O)[C@H](CC(C)C)NC(=O)[C@H](Cc1ccccc1)NC(=O)[C@@H](NC(=O)CN)C(C)C)C(=O)N[C@@H](CC(N)=O)C(=O)N[C@@H](C)C(=O)N[C@H](C(=O)N[C@@H](CC(C)C)C(=O)N[C@@H](CC(N)=O)C(=O)N1CCC[C@H]1C(=O)N[C@@H](CCCCN)C(=O)O)C(C)C [GVFLDALKKFAKGGMNAVLNPK]
- MIC [1]: 18 µM (≈ 41.7 µg/mL)
- MIC [2]: ≥ 100 µM
- MIC [3]: ≥ 100 µM

Compound: CC[C@H](C)[C@H](N)C(=O)N[C@@H](CC(C)C)C(=O)N1CCC[C@H]1C(=O)N[C@@H](Cc1c[nH]c2ccccc12)C(=O)N[C@@H](CCCCN)C(=O)N[C@@H](Cc1c[nH]c2ccccc12)C(=O)N1CCC[C@H]1C(=O)N[C@@H](Cc1c[nH]c2ccccc12)C(=O)N[C@@H](Cc1c[nH]c2ccccc12)C(=O)N1CCC[C@H]1C(N)=O [ILPWKWPWWP]
- MIC [5]: 1.6 µM (≈ 2.25 µg/mL)

Compound: CC[C@H](C)[C@H](N)C(=O)N[C@@H](CC(C)C)C(=O)N1CCC[C@H]1C(=O)N[C@@H](Cc1c[nH]c2ccccc12)C(=O)N[C@@H](CCCCN)C(=O)N[C@@H](Cc1c[nH]c2ccccc12)C(=O)N1CCC[C@H]1C(=O)N[C@@H](Cc1c[nH]c2ccccc12)C(N)=O [ILPWKWPW]
- MIC [5]: 6.3 µM (≈ 7.08 µg/mL)

Compound: CC(C)C[C@H](NC(=O)[C@H](CC(C)C)NC(=O)[C@H](CCCCN)NC(=O)[C@H](CC(C)C)NC(=O)[C@H](CC(C)C)NC(=O)[C@H](Cc1c[nH]c2ccccc12)NC(=O)[C@@H](N)CCCCN)C(N)=O [KWLLKLL]
- MIC [6]: ≥ 100 µM

Compound: CC[C@H](C)[C@H](NC(=O)[C@H](Cc1c[nH]c2ccccc12)NC(=O)[C@H](CC(C)C)NC(=O)[C@H](CCCN=C(N)N)NC(=O)[C@H](Cc1c[nH]c2ccccc12)NC(=O)[C@@H](N)CCCCN)C(=O)N[C@@H](CCCN=C(N)N)C(=O)N[C@@H](Cc1c[nH]c2ccccc12)C(=O)N[C@@H](CC(C)C)C(N)=O [KWRLWIRWL]
- MIC [6]: 12.5 µM (≈ 16.9 µg/mL)

Compound: CC[C@H](C)[C@H](NC(=O)[C@H](Cc1c[nH]c2ccccc12)NC(=O)[C@H](CCCN=C(N)N)NC(=O)[C@H](CCCN=C(N)N)NC(=O)[C@H](Cc1c[nH]c2ccccc12)NC(=O)[C@@H](N)CCCCN)C(=O)N[C@@H](C)C(=O)N[C@@H](Cc1c[nH]c2ccccc12)C(=O)N[C@@H](CC(C)C)C(N)=O [KWRRWIAWL]
- MIC [6]: 12.5 µM (≈ 16.4 µg/mL)

The next lines start with the values.

- MIC [6]: ≥ 100 µM
Compound: CC[C@H](C)[C@H](NC(=O)[C@H](Cc1c[nH]c2ccccc12)NC(=O)[C@H](CCCN=C(N)N)NC(=O)[C@H](CCCN=C(N)N)NC(=O)[C@H](Cc1c[nH]c2ccccc12)NC(=O)[C@@H](N)CCCCN)C(N)=O [KWRRWI]

- MIC [6]: ≥ 100 µM
Compound: CC(C)C[C@H](NC(=O)[C@H](CCCCN)NC(=O)[C@H](CC(C)C)NC(=O)[C@H](CC(C)C)NC(=O)[C@H](CC(C)C)NC(=O)[C@H](CCCCN)NC(=O)[C@@H](N)CC(C)C)C(N)=O [LKLLLKL]

- MIC (Escherichia coli K88): 1 µM (≈ 1.54 µg/mL)
- MIC [7]: 4 µM (≈ 6.16 µg/mL)
- MIC [8]: 2 µM (≈ 3.08 µg/mL)
- MIC [9]: 4 µM (≈ 6.16 µg/mL)
- MIC [1]: 2 µM (≈ 3.08 µg/mL)
- MIC [10]: 1 µM (≈ 1.54 µg/mL)
- MIC [11]: 4 µM (≈ 6.16 µg/mL)
- MIC [12]: 4 µM (≈ 6.16 µg/mL)
- MIC (Escherichia coli UB1005): 1 µM (≈ 1.54 µg/mL)
- MIC [13]: 4 µM (≈ 6.16 µg/mL)
- MIC (Escherichia coli K99): 4 µM (≈ 6.16 µg/mL)
- MIC [14]: 4 µM (≈ 6.16 µg/mL)
- MIC (Escherichia coli 078): 4 µM (≈ 6.16 µg/mL)
Compound: CC[C@H](C)[C@H](NC(=O)[C@H](Cc1c[nH]c2ccccc12)NC(=O)[C@H](CCCCN)NC(=O)[C@H](CC(C)C)NC(=O)[C@@H](NC(=O)[C@H](Cc1c[nH]c2ccccc12)NC(=O)CNC(=O)[C@@H](NC(=O)[C@H](CCCCN)NC(=O)[C@H](CCCCN)NC(=O)[C@H](CC(C)C)NC(=O)[C@@H](N)CCCN=C(N)N)[C@@H](C)CC)C(C)C)C(N)=O [RLKKIGWVLKWI]

- MIC [6]: 3.12 µM (≈ 4.51 µg/mL)
Compound: CC(C)C[C@H](NC(=O)[C@H](CCCN=C(N)N)NC(=O)[C@H](Cc1c[nH]c2ccccc12)NC(=O)[C@H](CC(C)C)NC(=O)[C@H](Cc1c[nH]c2ccccc12)NC(=O)[C@H](Cc1c[nH]c2ccccc12)NC(=O)[C@H](CC(C)C)NC(=O)[C@H](Cc1c[nH]c2ccccc12)NC(=O)[C@@H](N)Cc1c[nH]c2ccccc12)C(N)=O [WWLWWLWRL]

- MIC [15]: ≥ 70 µM
- MIC (Escherichia coli): 40 µM (≈ 66 µg/mL)
- MIC (Bacillus subtilis): ≥ 40 µM
- MIC [16]: 40 µM (≈ 66 µg/mL)
- MIC [17]: ≥ 40 µM
- MIC [12]: 30 µM (≈ 49.5 µg/mL)
- MIC [13]: 30 µM (≈ 49.5 µg/mL)
- MIC [14]: 40 µM (≈ 66 µg/mL)
Compound: CC(C)[C@H](NC(=O)CNC(=O)[C@H](CCCN=C(N)N)NC(=O)[C@H](Cc1cnc[nH]1)NC(=O)[C@H](Cc1c[nH]c2ccccc12)NC(=O)[C@H](Cc1ccccc1)NC(=O)[C@H](Cc1cnc[nH]1)NC(=O)[C@H](Cc1ccc(O)cc1)NC(=O)[C@@H](N)Cc1ccc(O)cc1)C(=O)N[C@H](C(=O)N[C@@H](CCCCN)C(=O)N[C@@H](CCCN=C(N)N)C(=O)O)[C@@H](C)O [YYHFWHRGVTKR]
